# Test results taken from patent US7709526B2, “Use of cyclolignans and new cyclolignans” (Biovitrum AB, priority 2001, dated 2010).
# pIC50: −log10 of the molar value. Like-named read-outs stand apart in the source and are kept apart here.
# What was measured:
# IGF-1R [1] = target: T1, IGF-1R (Homo sapiens, UniProt P08069); test: IGF-1R phosphorylation/autophosphorylation in intact FM55 melanoma cells (immunoprecipitation, Western blotting, OD); format: cell-based; set-up: The cells were then isolated and subjected to immuno-precipitation of the IGF-1R; endogenous in cells; host or cells: FM55 melanoma cells; conditions: for Level of IGF-1R phosphorylation in intact cells: OD, control cells = 100%
# Experimental: The isolated cells were lyzed in 10 ml ice-cold PBSTDS containing protease inhibitors (Carlberg, M., et al., J Biol Chem 271:17453-17462, 1996). 50 μl protein A or G agarose was added in 1 ml sample and incubated for 15 min at 4° C. on an orbital shaker. After centrifugation for 10 min at 10,000 r/min at 4° C. the supernatant was saved. The protein content was determined by a dye-binding assay with a reagent purchased from Bio-Rad. Bovine serum albumin was used as a standard. 15 μl Protein G Plus agarose and 5 μl anti-IGF-1R were added. After a 3 h incubation at 4° C. on an orbital shaker the precipitate was collected by pulse centrifugation in a micro centrifuge at 14,000×g for 10 s. The supernatant was discarded and the pellet was washed 3 times with PBSTDS.
# Protein samples were solved in a 2×-sample buffer containing Laemmli buffer and 0.5% […] and boiled for 5 min at 96° C. Samples were separated by SDS-PAGE with a 4% stacking gel and 7.5% separation gel. Molecular weight markers (Bio Rad, Sweden) were run simultaneously in all experiments.
# Following SDS-PAGE the proteins were transferred overnight to nitro-cellulose membranes (Hybond, Amersham, UK) and then blocked for 1 h at room temperature in a solution of 4% skimmed milk powder and 0.02% Tween 20 in PBS, pH 7.5. Incubations with the primary antibodies were performed for 1 h at room temperature, followed by 3 washes with PBS with Tween and incubation with the second antibody for 1 h room temperature. After another 3 washes the membranes were incubated with Streptavidin-labelled horseradish peroxidase for 30 min and then detected using Amersham ECL system (Amersham, UK) The films were scanned by Fluor-S (BioRad).
# Melanoma cells (line FM55) were seeded in 6-cm dishes, at a concentration of 10,000 cells/cm^2 in Minimal Essential Medium supplemented with 10% fetal calf serum (FCS). […] Treatment with 0 μM represents untreated controls. The cells were then isolated and subjected to immuno-precipitation of the IGF-1R. The immunoprecipitates, containing purified IGF-1R, were fractionated by gel electrophoresis. Phosphorylation of IGF-1R was detected by an anti-phosphotyrosine antibody using Western blotting. The obtained signals represent phosphorylated IGF-1R and the intensity of signals represents amounts of phosphorylated IGF-1R. Details of the methods used are described above. The intensities are quantified by a scanner, which measures the optical density (OD) of the signals. For the control cells the OD is set at 100%. The blank (OD 0%) represents the background. The results given in Table 1 below are mean values of 3 experiments.
# FM 55 melanoma cells were cultured in the same way as described in Experiment 1. When reaching a density of 65,000 cells/cm^2 in the dishes, they were treated for 1 h with 0.05 μM podophyllotoxin, deoxypodophyllotoxin, acetylpodophyllotoxin, epipodophyllotoxin, 4′-demethyl-podophyllotoxin and podophyllotoxone. The cells were then harvested for assay and quantification of IGF-1R autophosphorylation as described above. The values shown in Table 2 represent means of 3 experiments.
# Target sequence in this assay (P08069 31-1367): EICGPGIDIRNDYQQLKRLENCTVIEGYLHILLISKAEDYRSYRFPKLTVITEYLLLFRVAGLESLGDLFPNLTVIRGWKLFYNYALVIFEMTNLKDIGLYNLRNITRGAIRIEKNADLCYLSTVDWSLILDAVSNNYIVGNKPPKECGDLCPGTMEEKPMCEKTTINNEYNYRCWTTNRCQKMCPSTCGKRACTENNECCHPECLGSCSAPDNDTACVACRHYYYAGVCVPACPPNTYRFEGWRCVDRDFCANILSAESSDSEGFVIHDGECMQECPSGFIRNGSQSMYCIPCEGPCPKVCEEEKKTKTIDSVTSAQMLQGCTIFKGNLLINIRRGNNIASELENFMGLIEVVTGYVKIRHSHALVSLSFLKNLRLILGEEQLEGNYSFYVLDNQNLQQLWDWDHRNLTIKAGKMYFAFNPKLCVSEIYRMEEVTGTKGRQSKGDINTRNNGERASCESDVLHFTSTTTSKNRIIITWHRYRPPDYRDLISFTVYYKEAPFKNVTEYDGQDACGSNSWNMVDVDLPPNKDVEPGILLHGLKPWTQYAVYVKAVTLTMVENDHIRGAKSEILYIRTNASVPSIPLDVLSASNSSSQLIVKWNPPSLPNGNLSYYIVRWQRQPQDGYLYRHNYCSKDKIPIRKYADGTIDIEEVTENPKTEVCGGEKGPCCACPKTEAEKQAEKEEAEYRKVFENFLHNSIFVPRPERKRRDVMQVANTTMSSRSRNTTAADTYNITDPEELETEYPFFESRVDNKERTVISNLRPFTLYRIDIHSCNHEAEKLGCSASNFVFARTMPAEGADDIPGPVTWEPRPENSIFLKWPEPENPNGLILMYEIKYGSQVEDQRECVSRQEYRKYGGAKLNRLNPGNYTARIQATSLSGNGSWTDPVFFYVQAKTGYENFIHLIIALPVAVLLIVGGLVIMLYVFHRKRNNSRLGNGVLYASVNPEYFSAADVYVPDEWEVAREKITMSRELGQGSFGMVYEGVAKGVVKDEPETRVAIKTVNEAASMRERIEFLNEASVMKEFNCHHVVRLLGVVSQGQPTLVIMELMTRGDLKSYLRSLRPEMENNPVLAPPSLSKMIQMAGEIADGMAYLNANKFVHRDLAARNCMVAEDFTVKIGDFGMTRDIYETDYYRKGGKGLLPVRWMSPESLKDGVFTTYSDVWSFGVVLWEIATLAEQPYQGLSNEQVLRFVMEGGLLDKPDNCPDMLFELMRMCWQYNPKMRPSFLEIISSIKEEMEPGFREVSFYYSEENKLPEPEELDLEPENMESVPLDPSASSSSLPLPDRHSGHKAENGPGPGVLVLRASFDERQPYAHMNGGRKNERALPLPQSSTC
# [2] = test system: HL60 acute myeloid leukemia cells; test: Viability of leukemia cells, HL60; format: cell-based, human; conditions: HL60, 72 h, read-out: IC50 for viability of leukemia cell lines
# Experimental: (§1) The human chronic myeloid leukemia K562/S and K562/Vcr30 lines and the acute myeloid leukemia cell lines HL60/0 and HL60/Nov were obtained from ATCC. The K562/S and HL60/0 are wild type (non-resistant) cells, whereas K562/Vcr30 and HL60/Nov are cytostatic-resistant sublines. All leukemia cell lines were cultured in RPMI 1640 medium supplemented with 10% fetal bovine serum and with 2 mM glutamine, 1% benzyl-penicillin and streptomycin. The cells were grown in tissue culture flasks maintained at 95% air/5% CO2 atmosphere at 37° C. in a humidified incubator. For the experiments 25,000 cells were cultured in 60-mm plastic dishes or 96-well plastic plates. The experiments on leukemia cells were performed in collaboration with Associate professor Sigurd Vitols, Department of Pharmacology, Karolinska Hospital (Stockholm, Sweden).
# (§2) Cell proliferation kit II (Roche Inc.) is based on calorimetric change of the yellow tetrazolium salt XTT in orange formazan dye by the respiratory chain of viable cells (Roehm, N W, et al., J Immunol Methods 142:257-265, 1991). Cells seeded at a concentration of 5000/well in 100 μl medium in a 96-well plate were treated with different drugs in the given concentration. After 24 or 48 h the cells were incubated, according to the manufacturer's protocol, with XTT labelling mixture. After 4 h the formazan dye is quantified using a scanning multiwell spectrophotometer with a 495-nm filter. The absorbance is directly correlated with number of viable cells. The standard absorbance curve was drawn by means of untreated cells seeded at a concentration of from 1000 to 10 000 cells/well with an increasing rate of 1000 cells/well. All standards and experiments were performed in triplicates.
# (§3) The leukemia cell lines K562/S, K562/Vcr 30, HL60/0 and HL60/Nov were proven to express the IGF-1R. This was assayed by Western blotting analysis, as described in Methods and Experiment 1 and 2. The 4 leukemia cell lines were seeded in 96-well plates (medium volume in a well was 100 μl), in RPMI40 medium supplemented with fetal calf serum. After 24 h podophyllotoxin, deoxypodophyllotoxin and other derivatives were added at different concentrations for 72 h. Cell viability was then assayed (see above). IC50 values for each inhibitor and cell lines are shown below (Table 5). The results are based on 3 different experiments.
# [3] = test system: HL60/Nov acute myeloid leukemia cells (cytostatic-resistant); test: Viability of leukemia cells, HL60/Nov; format: cell-based, human; conditions: read-out: IC50 for viability of leukemia cell lines
# Experimental: as §1, §2, §3
# FM55 melanoma cells = test: Cell viability (XTT), FM55; format: cell-based, human
# Experimental: as §2
# (§4) 5 different types of cell lines were seeded in 96-well plates (medium volume in a well was 100 μl), at a concentration of 10,000 cells/cm^2 in Minimal Essential Medium supplemented with fetal calf serum. When the cells had reached a concentration of 65,000 cells/cm^2, they were treated with different doses of podophyllotoxin and deoxypodophyllotoxin for 48 h. Cell viability was then assayed (see above). IC50 values for each inhibitor and cell line, calculated as the concentration, resulting in a 50% decrease in cell survival, are shown below. The results are based on 4 different experiments.
# FM55 melanoma cells were cultured in the same way as described in Experiment 3 and were treated with different doses of podophyllotoxin analogues as described in Experiment 3.
# [4] = test system: K562/Vcr30 chronic myeloid leukemia cells (cytostatic-resistant); test: Viability of leukemia cells, K562/Vcr30; format: cell-based, human; conditions: K562/Vcr30, 72 h, read-out: IC50 for viability of leukemia cell lines
# Experimental: as §1, §2, §3
# [5] = test system: K562/S chronic myeloid leukemia cells; test: Viability of leukemia cells, K562/S; format: cell-based, human; conditions: 72 h, read-out: IC50 for viability of leukemia cell lines
# Experimental: as §1, §2, §3
# rats = conditions: cited from earlier work; for LD50 in rats, fold higher than podophyllotoxin: relative to podophyllotoxin
# SK-MEL-28 melanoma cells = test: Cell viability (XTT), SK-MEL-28; format: cell-based, human; conditions: 48 h
# Experimental: as §2
# as §4, with “IC50 values for each inhibitor and cell line, calculated as the concentration, resulting in a 50% decrease in cell survival, are shown below. The results are based on 4 different experiments.” left out
# Water solubility = format: physicochemical
# [6] = test system: MCF-7 breast cancer cells; test: Cell viability (XTT), MCF-7; format: cell-based, human; conditions: 48 h
# Experimental: as §2
# as §4, with “IC50 values for each inhibitor and cell line, calculated as the concentration, resulting in a 50% decrease in cell survival, are shown below. The results are based on 4 different experiments.” left out
# microtubules = conditions: cell free systems; cited from earlier work
# IGF-1R beta-subunit = target: T2, IGF-1R beta-subunit (Homo sapiens, UniProt P08069); conditions: melanoma cells, 15 microM; cited from earlier work
# T2 construct: host or cells: melanoma cells
# microtubuli = conditions: relative to podophyllotoxin; cited from earlier work
# malignant cells = test: Cell death in malignant cells; format: cell-based
# IGF-1R [7] = target: T1, IGF-1R; test: Effect on IGF-1R (method not given)
# Target sequence in this assay (P08069 31-1367, species assumed): as the sequence (P08069 31-1367) above
# isolated IGF-1R kinase = isolated IGF-1R kinase (Homo sapiens, UniProt P08069); conditions: cited from earlier work
# insulin receptor kinase = insulin receptor kinase (Homo sapiens, UniProt P06213); conditions: cited from earlier work
# [8] = FM55 cells, 0.05 μM, 1 h, podophyllotoxin = 1, mean of 3
# [9] = FM55, Experiment 4 (Table 4), read-out: IC50 for viability of FM55 cells
# [10] = FM55 cells, 1 μM, 1 h, mean of 3
# [11] = FM55 cells, 15 μM, 1 h, mean of 3
# [12] = FM55 cells, 60 μM, 1 h, mean of 3
# isolated IGF-1R kinase, sequence (P08069 31-1367): as above
# T2 sequence (P08069 31-1367): as above
# insulin receptor kinase, sequence (P06213 28-1382): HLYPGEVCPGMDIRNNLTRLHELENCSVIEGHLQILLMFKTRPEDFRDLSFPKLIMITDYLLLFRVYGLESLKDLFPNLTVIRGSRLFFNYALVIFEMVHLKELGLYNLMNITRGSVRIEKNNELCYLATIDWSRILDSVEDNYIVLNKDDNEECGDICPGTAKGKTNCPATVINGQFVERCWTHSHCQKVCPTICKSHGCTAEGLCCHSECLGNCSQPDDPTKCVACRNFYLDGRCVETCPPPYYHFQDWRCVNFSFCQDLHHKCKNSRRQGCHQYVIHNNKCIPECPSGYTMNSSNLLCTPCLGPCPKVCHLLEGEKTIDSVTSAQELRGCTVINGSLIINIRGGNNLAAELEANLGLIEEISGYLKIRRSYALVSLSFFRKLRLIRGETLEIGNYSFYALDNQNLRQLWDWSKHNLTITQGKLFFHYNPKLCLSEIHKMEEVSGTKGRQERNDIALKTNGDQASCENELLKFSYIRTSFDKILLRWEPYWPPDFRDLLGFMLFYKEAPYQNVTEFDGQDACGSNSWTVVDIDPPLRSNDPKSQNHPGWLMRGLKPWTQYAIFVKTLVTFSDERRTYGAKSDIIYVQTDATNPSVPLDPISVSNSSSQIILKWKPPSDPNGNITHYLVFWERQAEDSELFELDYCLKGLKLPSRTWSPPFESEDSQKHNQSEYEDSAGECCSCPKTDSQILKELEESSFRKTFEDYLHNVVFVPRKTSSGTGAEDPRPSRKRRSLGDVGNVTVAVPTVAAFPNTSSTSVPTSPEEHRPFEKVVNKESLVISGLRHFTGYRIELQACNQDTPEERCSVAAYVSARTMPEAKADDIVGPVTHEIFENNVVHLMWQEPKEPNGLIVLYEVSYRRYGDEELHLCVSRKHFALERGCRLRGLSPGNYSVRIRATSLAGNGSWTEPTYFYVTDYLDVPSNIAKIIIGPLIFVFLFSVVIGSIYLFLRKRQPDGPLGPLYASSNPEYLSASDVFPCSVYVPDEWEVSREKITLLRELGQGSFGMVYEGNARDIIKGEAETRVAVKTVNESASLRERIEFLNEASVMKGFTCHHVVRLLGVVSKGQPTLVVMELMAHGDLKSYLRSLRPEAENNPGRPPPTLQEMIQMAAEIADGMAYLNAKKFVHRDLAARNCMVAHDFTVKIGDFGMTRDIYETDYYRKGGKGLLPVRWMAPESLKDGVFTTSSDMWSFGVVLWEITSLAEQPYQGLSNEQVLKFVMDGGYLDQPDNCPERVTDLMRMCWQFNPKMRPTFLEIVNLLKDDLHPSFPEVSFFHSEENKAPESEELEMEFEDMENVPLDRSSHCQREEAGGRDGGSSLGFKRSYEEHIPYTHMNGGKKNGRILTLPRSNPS
smiles,measurement,setting,value
COc1cc([C@@H]2c3cc4c(cc3[C@H](O)[C@H]3COC(=O)[C@H]23)OCO4)cc(OC)c1O [4′-demethylpodophyllotoxin],"Inhibitory effect on IGF-1R autophosphorylation in intact cells in relation to podophyllotoxin, Relative potency",IGF-1R [1]; [8],0.5
same,pIC50,[2],7.70
same,pIC50,[3]; 72 h,7.74
same,pIC50,FM55 melanoma cells; [9],7.40
same,pIC50,[4],7.30
same,pIC50,[5],7.66
"COc1cc([C@@H]2c3cc4c(cc3[C@H](OC(C)=O)[C@H]3COC(=O)[C@H]23)OCO4)cc(OC)c1OC [Acetylpodophyllotoxin, acetylpodophyllotoxin]","Inhibitory effect on IGF-1R autophosphorylation in intact cells in relation to podophyllotoxin, Relative potency",IGF-1R [1],1.3
same,inhibition of IGF-1R phosphorylation (in words),"IGF-1R [1]; FM55 cells, 0.05 μM, 1 h",potent inhibitors
same,pIC50,[2],7.32
same,pIC50,[3]; 72 h,7.34
same,pIC50,FM55 melanoma cells; [9],7.52
same,pIC50,[4],6.85
same,LD50 in rats,rats,185 mg/kg
same,pIC50,[5],7.10
"COc1cc([C@@H]2c3cc4c(cc3C[C@H]3COC(=O)[C@@H]32)OCO4)cc(OC)c1OC [Deoxypodophyllotoxin, deoxypodophyllotoxin]",inhibition of IGF-1R phosphorylation (in words),"IGF-1R [1]; FM55 cells, 0.05 μM, 1 h",potent inhibitors
same,"Inhibitory effect on IGF-1R autophosphorylation in intact cells in relation to podophyllotoxin, Relative potency",IGF-1R [1]; [8],0.8
same,pIC50,[2],8.52
same,pIC50,SK-MEL-28 melanoma cells,7.40
same,water solubility,Water solubility,about 0.01 mM
same,pIC50,[3]; 72 h,8.70
same,pIC50,FM55 melanoma cells; [9],7.40
same,pIC50,"FM55 melanoma cells; FM55, melanoma, 48 h (Table 3), read-out: IC50 for cell viability",7.40
same,pIC50,[6],7.52
same,pIC50,[4],8.40
same,"LD50 in rats, fold higher than podophyllotoxin",rats,> 15 fold
same,pIC50,[5],8.52
"COc1cc([C@@H]2c3cc4c(cc3[C@@H](O)[C@H]3COC(=O)[C@H]23)OCO4)cc(OC)c1OC [Epipodophyllotoxin, epipodophyllotoxin]","Inhibitory effect on IGF-1R autophosphorylation in intact cells in relation to podophyllotoxin, Relative potency",IGF-1R [1]; [8],0.5
same,pIC50,"[2]; Homo sapiens, HL-60",6.90
same,pIC50,"[3]; Homo sapiens, HL-60, 72 h",7.05
same,pIC50,[4]; Homo sapiens,6.35
same,LD50 in rats,rats,> 200 mg/kg
same,pIC50,[5]; Homo sapiens,6.71
"COc1cc([C@@H]2c3cc4c(cc3[C@@H](O[C@@H]3O[C@@H]5CO[C@@H](C)O[C@H]5[C@H](O)[C@H]3O)[C@H]3COC(=O)[C@H]23)OCO4)cc(OC)c1O [Etoposide, etoposide]",effect on microtubules,microtubules,no effect on microtubules
"O=c1c(-c2ccc(O)cc2)coc2cc(O)cc(O)c12 [Genistein, genistein]",Level of IGF-1R phosphorylation in intact cells,IGF-1R [1]; [10],100%
same,Level of IGF-1R phosphorylation in intact cells,IGF-1R [1]; [11],96%
same,Level of IGF-1R phosphorylation in intact cells,IGF-1R [1]; [12],35%
same,effect on IGF-1R phosphorylation (in words),"IGF-1R [1]; FM55 cells, 1, 15, 60 μM, genistein statement at 60 μM",partial inhibitory effect
"COc1cc([C@@H]2c3cc4c(cc3C(=O)[C@H]3COC(=O)[C@H]23)OCO4)cc(OC)c1OC [Podophyllotoxone, podophyllotoxone]","Inhibitory effect on IGF-1R autophosphorylation in intact cells in relation to podophyllotoxin, Relative potency",IGF-1R [1],0.3
same,pIC50,[2],< 6.30
same,pIC50,[3]; 72 h,< 6.30
same,pIC50,[4],< 6.30
same,pIC50,[5],< 6.30
"CC/C(=C(\c1ccccc1)c1ccc(OCCN(C)C)cc1)c1ccccc1 [Tamoxifen, tamoxifen]",tyrosine phosphorylation of the IGF-1R beta-subunit,IGF-1R beta-subunit,efficiently blocked
same,Level of IGF-1R phosphorylation in intact cells,IGF-1R [1]; [10],95%
same,Level of IGF-1R phosphorylation in intact cells,IGF-1R [1]; [11],20%
same,Level of IGF-1R phosphorylation in intact cells,IGF-1R [1]; [12],10%
COc1cc([C@@H]2c3cc4c(cc3[C@H](O)[C@H]3COC(=O)[C@@H]23)OCO4)cc(OC)c1OC [picropodophyllin],"affinity for microtubuli, fold lower than podophyllotoxin",microtubuli,50 fold
same,"LD50 in rats, fold higher than podophyllotoxin",rats,more than 35 fold
same,cell death in malignant cells (in words),malignant cells,equipotent to podophyllotoxin
same,effect on IGF-1R / inhibition of IGF-1R activity (in words),IGF-1R [7],equipotent to podophyllotoxin
"COc1cc(C2c3cc4c(cc3C(OC3OC5COC(c6ccccc6)OC5C(O)C3O)C3COC(=O)C23)OCO4)cc(OC)c1OC [podophyllotoxin-4,6-O-benzylidene-β-D-glucopyranoside]",effect on IGF-1R / inhibition of IGF-1R activity (in words),IGF-1R [7],completely disappeared
N#C/C(=C\c1ccc(O)c(O)c1)C(=O)c1ccc(O)c(O)c1 [tyrphostin AG 538],pIC50,isolated IGF-1R kinase,6.40
same,effect on insulin receptor kinase,insulin receptor kinase,also blocked the insulin receptor kinase
